Experimental data from patent US11202751B2, “Whitening cosmetic composition comprising Caragana sinica root extract” (CELLTRION, INC., priority 2015, dated 2021).

Columns and labels:
[1] = test system: tyrosinase, isolated and refined from a mushroom; assay: Tyrosinase activity inhibition (absorbance at 475 nm, L-tyrosine substrate); assay type: biochemical
Procedure: A tyrosinase is an enzyme that promotes an oxidization process of a substance called tyrosine in vivo to produce a melanin. […] After that, 0.5 ml of a resulting L-tyrosine solution was inserted into a test tube, after which 0.5 ml of a sample fluid of the above Caragana Sinica root extract and the fraction thereof was added thereto, such that the test tube of a resulting mixture was left alone in a 37° C. constant temperature chamber for 10 minutes. […] The reaction was stopped by placing the test tube containing that reaction solution on ice to be rapidly cooled down, after which an absorbance of the resulting product was measured with a spectrophotometer at a wavelength of 475 nm. Control group was one containing 0.5 ml of a buffer solution instead of the Caragana Sinica root extract, and the comparison target was arbutin, well-known as a skin whitening agent. At that time, an inhibition rate of tyrosinase activity (%) was calculated according to the following Mathematical formula 1, wherein results thereof were shown in the following Table 2. [formula] [formula]

[2] = test system: B16F1 melanin-forming cell; assay: Melanin production inhibition in B16F1 melanin-forming cells; assay type: cell-based; settings: Mus musculus, B16-F1, 72 hours, read-out: Inhibition rate of melanin production (%)
Description: In order to confirm a whitening effect of the ethanol extract of Caragana Sinica root and the fraction thereof prepared in the above Examples 1 to 5, its effect on inhibiting a production of melanin was confirmed with regard to a B16F1 melanin-forming cell.
Specifically, the B16F1 melanin-forming cells, as a mouse-derived cell line, were obtained from American Type Culture Collection (ATCC) to use. The B16F1 melanin-forming cells were divided into a 6-well plate at a concentration of 2×10^5 per well, after which the cells were attached thereto, thus being divided at such a concentration as not to cause toxicity. […] After this 72-hour cultivation, the cells were taken off by trypsin-EDTA, after which the number of cells was measured, and then cells were collected by centrifugation. A quantification of melanin in cells was performed in such a way that modifying method of Lotan (Cancer Res., 40: 3345-3350, 1980). […] 1N NaOH (10% DMSO) was added to a cell lysate obtained through centrifugation (3,000 rpm, 10 minutes) so as to dissolve the extracted melanin, after which an absorbance of the melanin was measured by microplate reader at 405 nm, and the melanin was quantified to measure an inhibition rate of melanin production (%) of a sample. […]

[3] = test system: B16F1 melanin-forming cell; assay: Inhibition of α-MSH-induced melanin production in B16F1 cells; assay type: cell-based, mouse; settings: for IC50: B16F1, 70 to 74 hours
Procedure: Specifically, the B16F1 melanin-forming cells, as a mouse-derived cell line, were obtained from American Type Culture Collection (ATCC) to use. The B16F1 melanin-forming cells were divided into a 6-well plate at a concentration of 2×10^5 per well, after which the cells were attached thereto, thus being divided at such a concentration as not to cause toxicity. After that, the ethanol extract of Caragana Sinica root and the fraction thereof obtained from the above Examples 1 to 5 were treated at each concentration, and then being cultured for 72 hours. After this 72-hour cultivation, the cells were taken off by trypsin-EDTA, after which the number of cells was measured, and then cells were collected by centrifugation. A quantification of melanin in cells was performed in such a way that modifying method of Lotan (Cancer Res., 40: 3345-3350, 1980). A cell pallet was washed once with PBS, after which 1 ml of a homogenization buffer solution (50 mM sodium phosphate, pH6.8, 1% Triton X-100, 2 mM PMSF) was added thereto and swirled for 5 minutes to crush the cells. 1N NaOH (10% DMSO) was added to a cell lysate obtained through centrifugation (3,000 rpm, 10 minutes) so as to dissolve the extracted melanin, after which an absorbance of the melanin was measured by microplate reader at 405 nm, and the melanin was quantified to measure an inhibition rate of melanin production (%) of a sample. The inhibition rate of melanin production (%) of the B16F1 melanin-forming cell was calculated according to the following [Mathematical formula 2], wherein results thereof were indicated at Table 3.
In order to confirm whitening effect of α-viniferin isolated from the fraction of Caragana Sinica root of the above Example 4, its effect on inhibiting a production of melanin was confirmed with regard to a B16F1 melanin-forming cell.
Specifically, the α-viniferin isolated from the ethyl acetate fraction of the ethanol extract of Caragana Sinica root obtained from the above Example 4 or arbutin, and α-MSH, a stimulant of melanin production, were treated at the same time, after which an amount of melanin was measured in 70 to 74 hours later as describe in the above Example 2-2.

[4] = Stability of isolated α-viniferin at 50° C. (HPLC content); assay type: physicochemical; settings: for content by HPLC / content relative to initial: 50° C.
Procedure: In order to confirm a stability of α-viniferin, the α-viniferin isolated from the ethyl acetate fraction of the ethanol extract of Caragana Sinica root obtained from the above Experimental Example 1 was stored under a condition of 50° C. for 2 weeks, after which content changes thereof were observed through an HPLC analysis by the same method of the above Experimental Example 1. A control group was kobophenol A isolated from the Caragana Sinica root extract, which was stored under the same condition with that of the α-viniferin, after which content changes thereof were observed by the same method.

Inhibition rate of tyrosinase activity (%) ([1]; sample concentration 0.05%) | Inhibition rate of tyrosinase activity (%) ([1]; sample concentration 0.1%) | Inhibition rate of tyrosinase activity (%) ([1]; sample concentration 0.2%) | IC50 ([3]; Mus musculus, B16-F1) [µM] | content change at high temperature (in words) ([4]; 50° C. for 2 weeks) | content by HPLC ([4]; 1 week) [ppm] | content relative to initial ([4]; 1 week) [%] | content by HPLC ([4]; 2 weeks) [ppm] | content relative to initial ([4]; 2 weeks) [%] | content by HPLC ([4]; Initial) [ppm] | Molecule | inhibition at 100 µg/mL ([2]; 100 μg/ml) [%] | inhibition at 200 µg/mL ([2]; 200 μg/ml) [%] | inhibition at 100 µM ([3]; Mus musculus, B16-F1, 100 μM, read-out: inhibition rate of melanin production induced by α-MSH) [%] | inhibition at 200 µM ([3]; Mus musculus, B16-F1, 200 μM, read-out: inhibition rate of melanin production induced by α-MSH) [%] | inhibition at 400 µM ([3]; Mus musculus, B16-F1, 400 μM, read-out: inhibition rate of melanin production induced by α-MSH) [%] | inhibition at 4 µM ([3]; Mus musculus, B16-F1, 4 μM, read-out: inhibition rate of melanin production induced by α-MSH) [%] | inhibition at 6 µM ([3]; Mus musculus, B16-F1, 6 μM, read-out: inhibition rate of melanin production induced by α-MSH) [%] | inhibition at 8 µM ([3]; Mus musculus, B16-F1, 8 μM, read-out: inhibition rate of melanin production induced by α-MSH) [%] | whitening effect on α-MSH-induced melanin production, times higher than that of arbutin ([3]; ratio of IC50 values vs arbutin)
21.2 | 38.4 | 78.7 | 242 |  |  |  |  |  |  | OC[C@H]1O[C@@H](Oc2ccc(O)cc2)[C@H](O)[C@@H](O)[C@@H]1O [Arbutin, arbutin] | 63.5 | 75.7 | 13 | 44 | 73 |  |  |  | 
 |  |  | 7 | not decreased | 249.60 | 98.7 | 253.45 | 100.3 | 252.8 | Oc1ccc(C2Oc3cc(O)cc4c3[C@@H]2c2cc(O)cc3c2C(c2cc(O)cc5c2[C@@H]4[C@H](c2ccc(O)cc2)O5)[C@H](c2ccc(O)cc2)O3)cc1 (stereo partly drawn) [α-viniferin] |  |  |  |  |  | 8 | 21 | 63 | about 35 times
 |  |  |  |  | 115.6 | 95.2 | 103.6 | 85.3 | 121.4 | kobophenol A |  |  |  |  |  |  |  |  | 
